Earlier results on eleven molecules are cited in patent US6045829A, “Nanocrystalline formulations of human immunodeficiency virus (HIV) protease inhibitors using cellulosic surface stabilizers” (Elan Pharma International Limited, priority 1997, dated 2000).

Molecules are shown by their SMILES.

Tested on in the first data set: not given
To be noted: in vivo, po.
In the case of `Cc1c(O)cccc1C(=O)N[C@@H](CSc1ccccc1)[C@H](O)CN1C[C@H]2CCCC[C@H]2C[C@H]1C(=O)NC(C)(C)C` [AG1343], the oral bioavailability entry was “low oral bioavailability”.
For `CC(C)(C)NC(=O)[C@@H]1CN(Cc2cccnc2)CCN1C[C@@H](O)C[C@@H](Cc1ccccc1)C(=O)N[C@H]1c2ccccc2C[C@H]1O` [MK-639, N-(2-(R)-hydroxy-1(S)-indanyl)-2(R)-phenylmethyl-4-(S)-hydroxy-5-(1-(4-(3-pyridylmethyl)-2(S)-N'-(t-butylcarboxamido)-piperazinyl))-pentaneamide], the oral bioavailability entry is reported as “low oral bioavailability”.
As to `CC(C)CN(C[C@@H](O)[C@H](Cc1ccccc1)NC(=O)O[C@H]1CCOC1)S(=O)(=O)c1ccc(N)cc1` [VX-478], the oral bioavailability result was “low oral bioavailability”.
Consider `Nc1cccc(CN2C(=O)N(Cc3cccc(N)c3)[C@H](Cc3ccccc3)[C@H](O)[C@@H](O)[C@H]2Cc2ccccc2)c1` [DMP-450], for which the oral bioavailability result is “low oral bioavailability”.
`CC(C)c1nc(CN(C)C(=O)N[C@H](C(=O)N[C@@H](Cc2ccccc2)C[C@H](O)[C@H](Cc2ccccc2)NC(=O)OCc2cncs2)C(C)C)cs1` [ABT-538]: the oral bioavailability entry is “low oral bioavailability”.
Regarding `CC(C)(C)NC(=O)[C@@H]1C[C@@H]2CCCC[C@@H]2CN1C[C@@H](O)[C@H](Cc1ccccc1)NC(=O)[C@H](CC(N)=O)NC(=O)c1ccc2ccccc2n1` [saquinavir], the oral bioavailability result is “low oral bioavailability”.

The data set is the same for the next values; noted with them: oral.
In the case of `N#Cc1ccc(S(=O)(=O)Nc2cccc(C(c3c(O)c4c(oc3=O)CCCCCC4)C3CC3)c2)cc1` (stereo not shown) [U-103,017], the oral bioavailability entry is “low oral bioavailability”.
Take `CSC[C@H](NC(=O)COc1cccc2cnccc12)C(=O)N[C@@H](Cc1ccccc1)[C@H](O)C(=O)N1CSC[C@H]1C(=O)NC(C)(C)C` [KNI-272]: the oral bioavailability result is listed as “low oral bioavailability”.

The next data set deals with HIV reverse transcriptase (RT). To be noted: in vivo.
Take `O[C@H](CS)[C@H](O)CS` (racemic) [ddT, dithiothreitol]: the “effectiveness in treating HIV infection” value is reported as “only modestly effective”.
`O=c1[nH]cnc2c1ncn2[C@H]1CC[C@@H](CO)O1` [ddI, didanosine]: the “effectiveness in treating HIV infection” value was “only modestly effective”.

The same data set, now with this note: interfere with cellular enzymes similar to the HIV viral enzyme.
`O[C@H](CS)[C@H](O)CS` (racemic) [ddT, dithiothreitol]: the side effects result is recorded as “severe side effects”.
For the molecule `Cc1cn([C@H]2C[C@H](N=[N+]=[N-])[C@@H](CO)O2)c(=O)[nH]c1=O` [AZT, azidothymidine], the side effects result was “severe side effects”.
Take `O=c1[nH]cnc2c1ncn2[C@H]1CC[C@@H](CO)O1` [ddI, didanosine]: the side effects result is “severe side effects”.
